Source: patent US20060070135A1, “Compositions and methods for inhibiting the enzymatic activity of PTP-1B” (priority 1998, published 2006)

How the values were obtained:
[1] = test system: phosphorylation level of the insulin receptor in CHO-IR cells (endogenous PTP-1B); test: Intact cell assay: insulin receptor phosphorylation level in CHO-IR cells treated with PTP-1B inhibitors and stimulated with insulin; assay type: cell-based, Chinese hamster; settings: 5 nM insulin; for Intact cell assay: fold-increase over control / fold induction at 50 µM: at 50 μM
Description: The phosphorylation level of the insulin receptor (IR) was determined in CHO-IR cells (Chinese hamster ovarian cells expressing endogenous PTP-1B and overexpressing human insulin receptor; ATCC, Manassas, Va.) treated with PTP-1B inhibitors and stimulated with 5 nM insulin. CHO-IR cells were grown in F12 media, 10% fetal bovine serum (FBS), and 1% penstrep. All experiments were conducted within the first 12 passages after thawing cells.
On the first day of the experiment, CHO-IR cells were placed in 6-well plates (1/10 of 100 mm confluent plate). Once cells were confluent (˜24 hours later), the cells were starved overnight in 0% fetal bovine serum F12 medium. After the overnight incubation, the medium was changed to fresh 0% F12 30 minutes prior to the addition of inhibitor. A 1 mL aliquote of media containing inhibitor (10, 25 or 50 μM), with a final concentration of 0.1% DMSO, was added to each well. The inhibitors were added directly to the serum-free media, shortly before using them (i.e., the inhibitor was added to cells within 10 minutes of dilution). Cells were incubated with inhibitors for 2-4 hours. A 250 μL aliquote of insulin (human insulin, HUMULIN™ was subsequently added to each well at a final concentration of 5 nM. The cells were incubated for an additional 10 minutes and washed 2× with cold phosphate-buffered saline (PBS). Proteins were isolated with modified RIPA buffer (200 μL/well) containing protease inhibitor (COMPLETE™), NaF, and Na3VO4.
Protein quantification was conducted using Bradford reagent (BIO-RAD, Hercules, Calif.). Proteins were separated in an 8% SDS-PAGE gel with 25-40 μg protein per well. The proteins were subsequently transferred to PDVF membrane for western blot analysis. Membranes were blocked for 1 hour in either 1% bovine serum albumin for the 4G10 antibody or 5% milk for other antibodies. Membranes were incubated overnight at 4° C. with 4G10 or phospho-antibody, washed 4×5 minutes to remove the primary antibody, incubated 1 hour with secondary antibody, washed an additional 4×5 minutes, and visualized using an ECL detection kit.
Membranes were subsequently stripped, blocked for 1 hour and probed with anti-P-IR, anti-IR, anti-p-AKT, and anti-AKT primary antibodies. Primary antibodies were anti-IR pY1162pY1163 (human) polyclonal antibody and anti-1-IR polyclonal antibody. The blots were washed 4×5 minutes to remove primary antibody, incubated 1 hour in anti-rabbit HRP secondary antibody, washed an additional 4×5 minutes and visualized using ECL.
Bands visualized on the blots were quantified using NIH Image 1.62. Quantification was conducted for at least three experiments.

[2] = molecular target: Insulin receptor (mouse, endogenous; β-subunit immunoprecipitated from tissue membrane fractions) (mouse) (UniProt P15208); test: cell-based or functional assay
[3] = Cricetulus griseus, read-out: Intact cell assay: fold-increase over control

Sequence of UniProt P15208 (P15208 753-1372 limits assumed): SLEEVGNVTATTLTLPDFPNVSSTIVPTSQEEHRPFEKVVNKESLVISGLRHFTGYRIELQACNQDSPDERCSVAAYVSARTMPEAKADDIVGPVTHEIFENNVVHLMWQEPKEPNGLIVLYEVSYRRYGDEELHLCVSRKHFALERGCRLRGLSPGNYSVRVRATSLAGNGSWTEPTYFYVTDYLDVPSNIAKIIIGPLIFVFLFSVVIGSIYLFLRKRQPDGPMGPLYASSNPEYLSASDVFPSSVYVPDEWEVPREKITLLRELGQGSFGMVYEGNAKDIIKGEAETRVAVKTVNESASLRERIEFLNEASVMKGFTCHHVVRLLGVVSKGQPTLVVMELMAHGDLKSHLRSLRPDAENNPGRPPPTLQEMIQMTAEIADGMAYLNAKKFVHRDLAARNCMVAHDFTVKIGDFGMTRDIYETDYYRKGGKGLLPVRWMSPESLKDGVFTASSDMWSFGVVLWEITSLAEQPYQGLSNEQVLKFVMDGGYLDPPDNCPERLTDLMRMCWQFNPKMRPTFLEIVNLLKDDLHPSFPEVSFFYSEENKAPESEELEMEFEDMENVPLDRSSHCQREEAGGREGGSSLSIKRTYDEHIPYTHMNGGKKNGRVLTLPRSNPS

Compound | Intact cell assay: fold-increase over control [1] | further results
Nc1nnnn1/N=C/c1cc(I)cc(I)c1O [compound 19, 2-[(5-aminotetrazol-1-ylimino)-methyl]-4,6-diiodophenol] | Inactive at 50 μM | 
N#CC(C#N)=C1CSc2sc(=S)sc2SC1 [compound 13, 2-(2-thioxo-[1,3]dithiolo[4,5-b][1,4]dithiepin-6-ylidene)malononitrile] | Inactive at 50 μM | 
O=C1C=CC(=O)c2c(O)cccc21 [compound 21, 5-hydroxy-[1,4]-naphthoquinone] |  | fold induction at 50 µM [1, 3]: 0.87
Protein tyrosine phosphatase-1B (mouse, endogenous) (from UniProt P35821 1-432) (enzyme) |  | insulin receptor phosphorylation level in muscle after insulin challenge, PTP-1B (+/-) against wild-type mice on high fat, high carbohydrate diet [2]: 2 fold; insulin receptor phosphorylation level in muscle after insulin challenge, PTP-1B (-/-) against wild-type mice on high fat, high carbohydrate diet [2]: 4 fold; phosphotyrosine level of the insulin receptor in muscle of insulin treated PTP-1B null mice compared to wild-type (immunoprecipitation, anti-phosphotyrosine immunoblot, densitometry) [2]: 40%
COc1ccc(-c2csc(N3N=C(c4ccc([N+](=O)[O-])cc4)C(=NNc4ccc(S(N)(=O)=O)cc4)C3=O)n2)cc1 [compound 15, 4-{N′-[1-[4-(4-methoxyphenyl)-thiazol-2-yl]-3-(4-nitrophenyl)-5-oxo-1,5-dihydropyrazol-4-ylidene]-hydrazino}-benzenesulfonamide] | Inactive at 50 μM | 
COc1cc(/C=C2/SC(=S)N(c3cccc(Cl)c3)C2=O)cc([N+](=O)[O-])c1O [compound 22, 3-(3-chlorophenyl)-5-(4-hydroxy-3-methoxy-5-nitrobenzylidene)-2-thioxothiazolidin-4-one] |  | fold induction at 25 µM ([1]; Cricetulus griseus, at 25 μM, read-out: Intact cell assay: fold-increase over control): 2.7; fold induction at 50 µM [1, 3]: 4.1
O=[N+]([O-])c1ccc(O)c(/C=N/N=c2/[nH]c3nonc3nc2Nc2ccc(I)cc2)c1 [compound 20, 2-{[6-(4-iodophenylamino)-4H-[1,2,5]oxadiazolo[3,4-b]pyrazin-5-ylidene]-hydrazonomethyl}-4-nitrophenol] | Inactive at 50 μM | 
O=C(/C=C/c1ccco1)Nc1ccc(C(=O)O)cc1NC(=O)/C=C/c1ccco1 [compound 16, 3,4-bis-(3-furan-2-ylacryloylamino)-benzoic acid] | Inactive at 50 μM | 
O=C(O)c1ccc(N2C(=O)/C(=C/c3ccc(-c4ccc([N+](=O)[O-])cc4)o3)C=C2c2ccccc2)cc1 [compound 17, 4-{3-[5-(4-nitrophenyl)-furan-2-ylmethylene]-2-oxo-5-phenyl-2,3-dihydropyrrol-1-yl}-benzoic acid] | Inactive at 50 μM | 
CCc1nnc(NS(=O)(=O)c2ccc(NC(=S)NC(=O)/C=C/c3ccc(C(C)C)cc3)cc2)s1 [compound 14, N-(5-ethyl-[1,3,4]thiadiazol-2-yl)-4-{3-[3-(4-isopropylphenyl)-acryloyl]-thioureido}-benzenesulfonamide] | Inactive at 50 μM | 
Nc1c(S(=O)(=O)O)cc(S(=O)(=O)O)c2cccc(O)c12 [compound 11, 4-amino-5-hydroxynaphthalene-1,3-disulfonic acid] | Inactive at 50 μM | 
Protein tyrosine phosphatase-1B (mouse, endogenous) (from UniProt P35821 1-432) |  | insulin receptor tyrosine phosphorylation in liver of wild-type mice, 5 minutes against 1 minute after insulin injection [2]: 50%
